Target: human PDE1B enzyme (Homo sapiens (Human), UniProt Q01064)
Experiment: IMAP TR-FRET PDE1B enzymatic assay
Type: biochemical
Details: negative log of half-maximal molar inhibitory concentration, 200 nM FAM-cAMP, values given as bins; for IC50: read-out: PDE1b (pIC50) (converted)
Summary of the method: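 Full-length GST-tagged human PDE1B (250 pg/well) in IMAP BSA buffer with 10 U/ml calmodulin and 2.5 mM CaCl2; compound pre-incubated 5 min at room temperature, then 200 nM (final) FAM-cAMP for 30 min. IMAP binding reagent/Tb added, 1 h; TR-FRET 520/490 ratio read. IC50 from sigmoidal dose-response fit.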

Row | SMILES | IC50 [µM] | PDE1b (pIC50)
1 | CCOCCNC(=O)c1c(C)oc2ncnc(NC3(C)CC3)c12 [Example 171, N-(2-Rthoxyethyl)-6-methyl-4-[(1-methylcyclopropyl)amino]furo[2,3-d]pyrimidine-5-carboxamide] | 0.1 to 1 | 
2 | Cc1oc2ncnc(NC3(C)CC3)c2c1C(=O)Nc1ccnn1C [Example 174, 6-Methyl-N-(1-methyl-1H-pyrazol-5-yl)-4-[(1-methylcyclopropyl)amino]furo[2,3-d]pyrimidine-5-carboxamide] | 0.1 to 1 | 
3 | Cc1oc2ncnc(NC3(C)CC3)c2c1C(=O)NCC1CCCO1 (stereo not drawn) [Example 175, 6-Methyl-4-[(1-methylcyclopropyl)amino]-N-(oxolan-2-ylmethyl)furo[2,3-d]pyrimidine-5-carboxamide] | 0.01 to 0.1 | 
4 | Cc1oc2ncnc(NC3(C)CC3)c2c1C(=O)NCCOC(C)C [Example 176, 6-Methyl-4-[(1-methylcyclopropyl)amino]-N-[2-(propan-2-yloxy)ethyl]furo[2,3-d]pyrimidine-5-carboxamide] | 0.01 to 0.1 | 
5 | Cc1oc2ncnc(NC3(C)CC3)c2c1C(=O)NCc1ccccc1 [Example 177, N-Benzyl-6-methyl-4-[(1-methylcyclopropyl)amino]furo[2,3-d]pyrimidine-5-carboxamide] | 0.01 to 0.1 | 
6 | Cc1ccccc1NC(=O)c1c(C)oc2ncnc(NC3(C)CC3)c12 [Example 178, 6-Methyl-4-[(1-methylcyclopropyl)amino]-N-(2-methylphenyl)furo[2,3-d]pyrimidine-5-carboxamide] | 0.01 to 0.1 | 
7 | Cc1cccc(NC(=O)c2c(C)oc3ncnc(NC4(C)CC4)c23)c1 [Example 180, 6-Methyl-4-[(1-methylcyclopropyl)amino]-N-(3-methylphenyl)furo[2,3-d]pyrimidine-5-carboxamide] | 0.01 to 0.1 | 
8 | Cc1ncccc1NC(=O)c1c(C)oc2ncnc(NC3(C)CC3)c12 [Example 181, 6-Methyl-4-[(1-methylcyclopropyl)amino]-N-(2-methylpyridin-3-yl)furo[2,3-d]pyrimidine-5-carboxamide] | 0.01 to 0.1 | 
9 | Cc1oc2ncnc(NC3(C)CC3)c2c1C(=O)NCc1ccc(N2CCOCC2)cc1 [Example 184, 6-Methyl-4-[(1-methylcyclopropyl)amino]-N-{[4-(morpholin-4-yl)phenyl]methyl}furo[2,3-d]pyrimidine-5-carboxamide] | 0.01 to 0.1 | 
10 | COc1ccc(CNC(=O)c2c(C)oc3ncnc(NC4(C)CC4)c23)c(F)c1F [Example 185, N-[(2,3-Difluoro-4-methoxyphenyl)methyl]-6-methyl-4-[(1-methylcyclopropyl)amino]furo[2,3-d]pyrimidine-5-carboxamide] |  | >8
11 | COc1ccc(N2CCN(C(=O)c3c(C)oc4ncnc(NC5(C)CC5)c34)CC2)cc1 [Example 186, 5-[4-(4-Methoxyphenyl)piperazine-1-carbonyl]-6-methyl-N-(1-methylcyclopropyl)furo[2,3-d]pyrimidin-4-amine] | 0.01 to 0.1 | 
12 | Cc1oc2ncnc(NC3(C)CC3)c2c1C(=O)NCCc1ccco1 [Example 188, N-[2-(Furan-2-yl)ethyl]-6-methyl-4-[(1-methylcyclopropyl)amino]furo[2,3-d]pyrimidine-5-carboxamide] | 0.01 to 0.1 | 
13 | Cc1oc2ncnc(NC3(C)CC3)c2c1C(=O)NCCn1ccnc1 [Example 189, N-[2-(1H-Imidazol-1-yl)ethyl]-6-methyl-4-[(1-methylcyclopropyl)amino]furo[2,3-d]pyrimidine-5-carboxamide] | 0.1 to 1 | 
14 | Cc1oc2ncnc(NC3(C)CC3)c2c1C(=O)NCc1cccs1 [Example 190, 6-Methyl-4-[(1-methylcyclopropyl)amino]-N-(thiophen-2-ylmethyl)furo[2,3-d]pyrimidine-5-carboxamide] | 0.01 to 0.1 | 
15 | Cc1oc2ncnc(NC3(C)CC3)c2c1C(=O)NCc1ccsc1 [Example 191, 6-Methyl-4-[(1-methylcyclopropyl)amino]-N-(thiophen-3-ylmethyl)furo[2,3-d]pyrimidine-5-carboxamide] | 0.01 to 0.1 | 
16 | Cc1oc2ncnc(NC3(C)CC3)c2c1C(=O)NCC1CCCCC1 [Example 192, N-(Cyclohexylmethyl)-6-methyl-4-[(1-methylcyclopropyl)amino]furo[2,3-d]pyrimidine-5-carboxamide] | 0.01 to 0.1 | 
17 | Cc1oc2ncnc(NC3(C)CC3)c2c1C(=O)NC1CCN(C)CC1 [Example 193, 6-Methyl-4-[(1-methylcyclopropyl)amino]-N-(1-methylpiperidin-4-yl)furo[2,3-d]pyrimidine-5-carboxamide] |  | <6
18 | Cc1oc2ncnc(NC3(C)CC3)c2c1C(=O)NC(C)c1ccccc1 (stereo not drawn) [Example 194, 6-Methyl-4-[(1-methylcyclopropyl)amino]-N-(1-phenylethyl)furo[2,3-d]pyrimidine-5-carboxamide] |  | >8
19 | Cc1oc2ncnc(NC3(C)CC3)c2c1C(=O)NCCc1ccccc1 [Example 195, 6-Methyl-4-[(1-methylcyclopropyl)amino]-N-(2-phenylethyl)furo[2,3-d]pyrimidine-5-carboxamide] | 0.01 to 0.1 | 
20 | Cc1ccc(CNC(=O)c2c(C)oc3ncnc(NC4(C)CC4)c23)cc1 [Example 196, 6-Methyl-4-[(1-methylcyclopropyl)amino]-N-[(4-methylphenyl)methyl]furo[2,3-d]pyrimidine-5-carboxamide] |  | >8
21 | Cc1cccc(CNC(=O)c2c(C)oc3ncnc(NC4(C)CC4)c23)c1 [Example 198, 6-Methyl-4-[(1-methylcyclopropyl)amino]-N-[(3-methylphenyl)methyl]furo[2,3-d]pyrimidine-5-carboxamide] | 0.01 to 0.1 | 
22 | COc1cccc(CN(C)C(=O)c2c(C)oc3ncnc(NC4(C)CC4)c23)c1 [Example 203, N-[(3-Methoxyphenyl)methyl]-N,6-dimethyl-4-[(1-methylcyclopropyl)amino]furo[2,3-d]pyrimidine-5-carboxamide] | 0.01 to 0.1 | 
23 | Cc1oc2ncnc(NC3(C)CC3)c2c1C(=O)NCCc1cccc(Cl)c1 [Example 204, N-[2-(3-Chlorophenyl)ethyl]-6-methyl-4-[(1-methylcyclopropyl)amino]furo[2,3-d]pyrimidine-5-carboxamide] | 0.01 to 0.1 | 
24 | Cc1oc2ncnc(NC3(C)CC3)c2c1C(=O)NCCc1c[nH]c2ccc(F)cc12 [Example 207, N-[2-(5-Fluoro-1H-indol-3-yl)ethyl]-6-methyl-4-[(1-methylcyclopropyl)amino]furo[2,3-d]pyrimidine-5-carboxamide] | 0.01 to 0.1 | 
25 | Cc1oc2ncnc(NC3(C)CC3)c2c1C(=O)N1C[C@@H]2[C@H](C1)[C@H]2c1ccccc1 [Example 208, 6-Methyl-N-(1-methylcyclopropyl)-5-[(1R,5S,6S)-6-phenyl-azabicyclo[3.1.0]hexane-3-carbonyl]furo[2,3-d]pyrimidin-4-amine] | 0.01 to 0.1 | 
26 | COc1ccccc1[C@H]1[C@@H]2CN(C(=O)c3c(C)oc4ncnc(NC5(C)CC5)c34)C[C@@H]21 [Example 209, 5-[(1R,5S,6S)-6-(2-Methoxyphenyl)-3-azabicyclo[3.1.0]hexane-3-carbonyl]-6-methyl-N-(1-methylcyclopropyl)furo[2,3-d]pyrimidin-4-amine] |  | >8
27 | C#CCNC(=O)c1c(C)oc2ncnc(NC3(C)CC3)c12 [Example 210, 6-Methyl-4-[(1-methylcyclopropyl)amino]-N-(prop-2-yn-1-yl)furo[2,3-d]pyrimidine-5-carboxamide] | 0.01 to 0.1 | 
